Measurements as given in patent publication EP1367044B1, “Calixarene-derivatives having anti-viral activity” (Aids Care Pharma Limited, priority 2002, dated 2003).

Key:
HIV = settings: drug used on its own, patients; cited from earlier work
[1] = human, in vivo; cited from earlier work
wild-type HIV-1(111a) = type: cell-based; settings: CEM cells, 4 days incubation at 37°C, syncytium formation
Protocol: The results shown in Table 1 for test 2 were obtained by testing cell cultures in accordance with the following procedure.
CEM cells were suspended at approximately 250,000 cells per milliliter of culture medium and infected with wild-type HIV-1(111a) at approximately 100 times the 50% cell culture infective dose (CCID50) per milliliter. Then 100µl of the infected cell suspensions were added to 200 µl microtiter plate wells containing 100 µl of an appropriate dilution of the test compounds. After 4 days incubation at 37°C the cell cultures were microscopically examined for syncytium formation.

gp120/CD4 binding = gp120/CD4 binding (UniProt P01730+P03375); experiment: Test 1: inhibition of gp120/CD4 binding, recombinant proteins in an immunoassay format

| Molecule | REDUCTION IN VIRAL LOAD (HIV) | SIDE EFFECTS [1] | also measured |
| --- | --- | --- | --- |
| Cc1cn([C@H]2C[C@H](N=[N+]=[N-])[C@@H](CO)O2)c(=O)[nH]c1=O [Zidovudine (AZT), Zidovudine] | 50-90% | myelosupression, myopathy, nausea, headache, anaemia |  |
| CC(C)c1nc(CN(C)C(=O)N[C@H](C(=O)N[C@@H](Cc2ccccc2)C[C@H](O)[C@H](Cc2ccccc2)NC(=O)OCc2cncs2)C(C)C)cs1 [Ritonavir] |  | diarrhoea nausea, vomiting, hepatitis, headache |  |
| O=c1[nH]cnc2c1ncn2[C@H]1CC[C@@H](CO)O1 [Didanosine (ddl), Didanosine] | 50-90% |  |  |
| Cc1c(O)cccc1C(=O)N[C@@H](CSc1ccccc1)[C@H](O)CN1C[C@H]2CCCC[C@H]2C[C@H]1C(=O)NC(C)(C)C [Nelfinavir (Viracept), Nelfinavir] |  | diarrohea, nausea & vomiting |  |
| Nc1ccn([C@H]2CC[C@@H](CO)O2)c(=O)n1 [Zalcitabine (ddc), Zalcitabine] | 50-90% |  |  |
| Cc1ccnc2c1NC(=O)c1cccnc1N2C1CC1 [Nevirapine] | 50-90% |  |  |
| Cc1cn([C@H]2C=C[C@@H](CO)O2)c(=O)[nH]c1=O [Stavudine (d4T), Stavudine] | 50-90% |  |  |
| O=C1Nc2ccc(Cl)cc2[C@@](C#CC2CC2)(C(F)(F)F)O1 [Efavirenz] | 50-90% |  |  |
| Nc1nc(NC2CC2)c2ncn([C@H]3C=C[C@@H](CO)C3)c2n1 [Abacavir] | 50-90% |  |  |
| CC(C)Nc1cccnc1N1CCN(C(=O)c2cc3cc(NS(C)(=O)=O)ccc3[nH]2)CC1 [Delaviridine] | 50-90% |  |  |
| dodecapotassium acetate of p-bromopyrogallol P-F-phenyl tetramer [AC-1 (1151c)] |  |  | Test 2 EC50 (wild-type HIV-1(111a)): 4 µg/mL; % inhibition of gp120/CD4 binding (gp120/CD4 binding; Conc um 0.39): 48%; % inhibition of gp120/CD4 binding (gp120/CD4 binding; Conc um 0.78): 55%; % inhibition of gp120/CD4 binding (gp120/CD4 binding; Conc um 1.56): 62%; % inhibition of gp120/CD4 binding (gp120/CD4 binding; Conc um 3.125): 70%; % inhibition of gp120/CD4 binding (gp120/CD4 binding; Conc um 6.25): 82%; % inhibition of gp120/CD4 binding (gp120/CD4 binding; Conc um 12.5): 86%; % inhibition of gp120/CD4 binding (gp120/CD4 binding; Conc um 25): 91%; % inhibition of gp120/CD4 binding (gp120/CD4 binding; Conc um 50): 93%; % inhibition of gp120/CD4 binding (gp120/CD4 binding; Conc um 100): 96%; EC50 (gp120/CD4 binding; read-out: Test 1 EC50, concentration which reduces gp120 interaction with CD4 by 50%): 500 to 1000 nM |
| Nc1ccn([C@@H]2CS[C@H](CO)O2)c(=O)n1 [Lamivudine (3TC), Lamivudine] |  | gastrointestinal disturbances, hair loss, myelosuppression, exacerbation of peripheral neuropathy |  |
| CC(C)(C)NC(=O)[C@@H]1C[C@@H]2CCCC[C@@H]2CN1C[C@@H](O)[C@H](Cc1ccccc1)NC(=O)[C@H](CC(N)=O)NC(=O)c1ccc2ccccc2n1 [Saquinavir] |  | loose stools, nausea, headache |  |
